{
  "source": "patent EP0462621A2",
  "about": "“Use of particular compounds for manufacture of pharmaceutical formulations for treatment against various parasites, mycoplasmas, other indications and other infections” (Prendergast, Patrick Thomas, priority 1990, dated 1991)",
  "key": {"[1]": {"system": "HIV-1", "assay": "Experiment la(b): H9 cells, HIV-1, antibody assay", "assay_type": "cell-based", "conditions": "Human immunodeficiency virus 1", "method": "Fresh macrophage cultures were obtained by incubation of mononuclear cells obtained from a leukopak directly in the wells of a microtiter plate having 6 wells per row. After removal of non-adherent cells, each row of the adherent macrophages was infected with 10-fold serial dilutions of HIV-I, with the use of polybrene to enhance uptake of the virus. After one to two hours, the virus inoculum was removed and replaced with fresh normal growth medium. The fresh medium for each row contained a particular concentration of AZT, dideoxy cytidine (ddC), or compound la, as indicated by the left-hand column of Table la(a). The first row of wells acted as a control, and to it was added fresh medium containing none of the three drugs. Medium levels were maintained for two to four weeks to allow replication of the virus to take place, with at least one complete fluid change to remove residual virus inoculum. The contents of each well were then tested for the level of HIV p24 antigen present using a commercially available antigen capture kit employing a radio-immunoassay which can detect as little as 10'^9gm of p24 present in a sample. The above procedure was done in duplicate runs.\nA procedure similar to that followed in Experiment la(a) was followed using infected H9 cells, H9 cells being a permanent human T-cell line.\nA procedure similar to that followed in Experiment la(a) was followed using infected H9 cells, being a permanent human T-cell line."}, "[2]": {"system": "L major/L mexicana", "assay": "Amastigotes (AM) in cell lines, in-vitro; also: key: - no/poor activity,; + fair/moderate activity,; ++ good/excellent activity", "assay_type": "cell-based", "conditions": "Lm., Amastigote", "description": "(§1) Amastigotes of Leishmania can be cultivated in a wide range of mammalian cells, some of which may be used in in-vitro screens. These include (1) a Sticker dog sarcoma (fibroblast) cell line, (2) transformed rodent macrophage cell lines, (3) primary isolated mouse peritoneal macrophages (MP mo), and (4) human monocyte-derived macrophages (HM mo). The methods are similar for all models. Amastigote or promastigote infected cells are maintained in a medium containing the drug for 4-7 days, at 37 C for L. donovani and 33-35 C for L. major and L. mexicana. Drug activity is then assessed by counting (I) the number of infected host cells and/or (II) the number of amastigotes/100 host cells.\n(§2) In-vitro and in-vivo models were used to test activities of a selection of many compounds. Those activities are summarized in Tables 1-3, showing variation between systems and species. Activities measured in the MP mo and HM mo models have shown the best correlation with results obtained in hamster and mouse models."}, "[3]": {"system": "L donovani", "assay": "Amastigotes (AM) in cell lines, in-vitro", "assay_type": "cell-based", "conditions": "Ld., Amastigote", "description": "as §1, §2"}, "[4]": {"system": "T. cruzi", "assay": "T. cruzi trypomastigote (TRY) in-vitro screen", "assay_type": "cell-based", "procedure": "(§3) In-vitro chemotherapy screens have for many years used models involving three stages of the T. cruzi life cycle: • (1) Epimastigote. Dividing populations are easily cultivated in a range of defined and semi-defined media, but are equivalent to a vector stage of the life cycle. • (2) Trypomastigote. These are isolated from a rodent host and can be maintained as a non-dividing population for 24-48 h in media. • (3) Amastigote. Dividing populations can be cultivated in muscle cells, fibroblasts and macrophages, following infection with trypomastigotes. After the initial infection, there is normally a period of 4-5 days during which the amastigotes divide before transforming, via the epimastigote stage, back to trypomastigotes which escape from the cell. Drug activity is measured during this 4-5 day period. A dividing host cell population, low infection rate, and the presence of trypomastigotes in the overlay can complicate the interpretation of results."}, "[5]": {"system": "T. cruzi", "assay": "T. cruzi epimastigote (EPI) in-vitro screen", "assay_type": "cell-based", "procedure": "as §3"}, "[6]": {"system": "HIV-1", "assay": "Experiment la(1): HIV-1 infected 81-66-45 cells", "assay_type": "cell-based"}, "[7]": {"system": "T lymphocytes", "assay": "Lymphocyte blastogenesis assay, T lymphocytes (PHA)", "assay_type": "cell-based, human", "method": "T and B lymphocytes from normal human donors were incubated for 30 minutes at various dose levels of the compounds indicated. The lymphocytes were added in triplicate wells in gentamicin and phytohemagglutinin (PHA) (a T cell mitogen), pokeweed mitogen (PWM) (a B cell mitogen) and allogeneic mononuclear cells (mixed leukocyte cultures; MLC) or media containing the above additives. The lymphocyte blastogenesis assay is described in detail below.\nThe data are represented as the mean of the three replicates. The results are presented in Charts la(e) (i) and la(e) (ii) (Figs. 1 and 2). […] A reduction of both T lymphocytes' abilities to proliferate was obtained when 100 u.M or greater concentrations of IPA was added to the cell cultures. Proliferative activity of T lymphocytes by 25% at the 30 u.M concentration of IPA in the experiment.\n• 1. Mononuclear cells are separated from whole blood by differential centrifugation using a synthetic separation medium, or are thawed from a cryopreserved preparation. The cells are washed and resuspended in media (RPMI - 1640, L-Glutamine 2mM, Herpes Buffer 25mM, Gentamicin 50 ug/ml, Human AB Serum-heat inactivated (56°, 30°) 20%). • 2. A viable cell count is determined. • 3. Cell concentration is adjusted to 2 x 10^6 /ml in media. • 4. The cell suspension is added to wells of a 96-well flat bottom plate in 0.1 ml aliquots (2 x 10^5 cells). • 5. The selected mitogens and/or antigens (in media without serum) are added to the cells in the wells also in 0.1 ml aliquots. • 6. The cultures are incubated for 3-7 days (depending upon the mitogen or antigen) at 37° C in a humidified 5% C02 atmosphere. • 7. Six to eight hours before termination of cultures 0.05 ml (1 µCi) of ^3HTdR sp. act 6.7 Ci/mM (20 µCi/ml stock) is added to each well. • 8. At termination of cultures the cells are harvested onto strips of scintillation-grade fibreglass paper using a multiple sample harvester. • 9. Perforated disks from the fibreglass paper of the harvested cultures are placed each into scintillation vials to which is then added 5 ml of toluene based scintillation cocktail. • 10. The vials are counted in a liquid scintillation counter for one minute where the amount of incorporated ^3HTdR is determined.\nnet CPM = xCPM of mitogen/antigen cultures - xCPM of media cultures."}, "[8]": {"system": "HIV-1", "assay": "HIV-1 production from patients' lymphocytes cocultured with PHA-stimulated normal PBL, p24 antigen capture", "assay_type": "cell-based", "conditions": "3.75 µM or higher; Figure 14", "method": "HIV-1 production from an AIDS patients' lymphocytes was carried out as described previously. Briefly, 10x10^6 patients' lymphocytes were cocultured with 5x10^6 PHA-stimulated normal PBL in RPMI 1640 medium containing 20% FBS, 5% interleukin 2 (Cellular Products, Buffalo, NY) and various concentrations of IPA. The culture was continued for 4 weeks. The culture was fed twice a week with 2-3x10^6 PHA-stimulated normal PBL. Culture medium was withdrawn twice a week and tested for the presence of HIV by the antigem capture test. Culture medium was replaced with new medium with or without drug at 3-4 days intervals.\nA study of IPA inhibition of HIV-1 production from lymphocytes of a HIV-1 seropositive patient was carried out. For this purpose, lymphocytes from an AIDS patient and an asymtomatic patient were cocultured with PHA stimulated PBL in the presence or absence of IPA. Results shown in Figure 14 indicate that IPA inhibited HIV-1 production in a dose dependent manner. […] In contrast, HIV-1 was detected in untreated cultures as early as 7 days following cocultivation."}},
  "data": [
    {"smiles": "CC(C)=CCNc1ncnc2c1ncn2[C@@H]1O[C@H](CO)[C@@H](O)[C@H]1O", "note": "[IPA, N^6-(Δ^2-isopentenyl) adenosine]", "values": [
      {"measurement": "IC50", "setting": "[1]; H9, HIV-1, as read from Figure 15, read-out: IC50", "value": 2, "unit": "µM"},
      {"measurement": "IC90", "setting": "[1]; H9, HIV-1, as read from Figure 15, read-out: IC90", "value": 3, "unit": "µM"},
      {"measurement": "IC50", "setting": "[1]; H9 Cells, from Figures 16 and 17, read-out: IC50 - The concentration of IPA which inhibits the replication of HIV-1 by 50%", "value": 6, "unit": "µM"},
      {"measurement": "IC90", "setting": "[1]; H9 Cells, from Figures 16 and 17, read-out: IC90 - The concentration of IPA which inhibits the replication of HIV-1 by 90%", "value": 10, "unit": "µM"},
      {"measurement": "Activity, AM in cell lines", "setting": "[2]", "value": "+"},
      {"measurement": "Activity, AM in cell lines", "setting": "[3]", "value": "-"},
      {"measurement": "activity, TRY", "setting": "[4]; T. cruzi strain Sonya", "value": "+ (Y,Sonya)"},
      {"measurement": "activity, TRY", "setting": "[4]; T. cruzi strain Y", "value": "+ (Y,Sonya)"},
      {"measurement": "activity, EPI", "setting": "[5]; T. cruzi strain MR", "value": "++(Y,MR, Sonya)"},
      {"measurement": "activity, EPI", "setting": "[5]; T. cruzi strain Sonya", "value": "++(Y,MR, Sonya)"},
      {"measurement": "activity, EPI", "setting": "[5]; T. cruzi strain Y", "value": "++(Y,MR, Sonya)"},
      {"measurement": "IC50", "setting": "[6]; Human immunodeficiency virus 1, from Figures 16 and 17, read-out: IC50 - The concentration of IPA which inhibits the replication of HIV-1 by 50%", "value": 6, "unit": "µM"},
      {"measurement": "IC90", "setting": "[6]; Human immunodeficiency virus 1, from Figures 16 and 17, read-out: IC90 - The concentration of IPA which inhibits the replication of HIV-1 by 90%", "value": 10, "unit": "µM"},
      {"measurement": "T lymphocyte responsiveness", "setting": "[7]; 10 µM, third experiment", "value": "Increased"},
      {"measurement": "T lymphocyte function", "setting": "[7]; 1000 µM down to 10 µM, third experiment (Figs. 7 and 8)", "value": "reductions"},
      {"measurement": "T lymphocyte proliferation", "setting": "[7]; 0.1 - 10 µM, first experiment", "value": "No effect or an increase"},
      {"measurement": "reduction in T lymphocyte function", "setting": "[7]; 30 -35 u.M, third experiment", "value": "~25", "unit": "%"},
      {"measurement": "T lymphocyte proliferation", "setting": "[7]; 30 down to 10 u.M, second experiment (Figs. 3 and 4)", "value": "No appreciable reduction"},
      {"measurement": "Proliferative activity of T lymphocytes, change", "setting": "[7]; 30 u.M, first experiment", "value": 25, "unit": "%"},
      {"measurement": "T lymphocytes' abilities to proliferate", "setting": "[7]; 100 u.M or greater, first experiment (Figs. 1 and 2)", "value": "reduction"},
      {"measurement": "Virus production (HIV-1 p24 antigen capture assay)", "setting": "[8]", "value": "completely blocked"}
    ]}
  ]
}
